Data on 4 molecules can be found in PMC3390922 (The Journal of Neuroscience, 2010).

Values joined by “and” are separate entries in the source; they are usually repeats but may differ in a detail not shown here. Identical values can stand only once. Counter-ions that a name gives are not always drawn.

Data set [1] relates to DA release in striatal slices. Also noted: species or system mouse.
Data set [2] concerns the target D1/D5 dopamine receptors. As to the kind of experiment: Saturation binding of [3H]-SCH23390 to membranes. Set-up: species or system mouse. To be noted: membranes from C57Bl/6 mice (data not shown).
The target in data set [3] is (non-α6) α4β2* nAChRs (Mus musculus, UniProt O70174+Q9ERK7).
For data set [4], the target named is (non-α6) α4β2* nAChRs in α6^L9′S mice (Mus musculus, UniProt O70174+Q9ERK7).
For data set [5] the following is noted: in vivo; cited from earlier work.
For data set [6], the target named is α6* nAChRs (αCtxMII-sensitive) in α4KO/α6^L9′S mice (Mus musculus, UniProt Q9ERK7+Q9R0W9, L280S).
The test system of data set [7] is WT, α6^L9′S, α4KO, and α4KO/α6^L9′S mice. Particulars: mouse, in vivo.
The target of data set [8] is α6* nAChRs (αCtxMII-sensitive, α6β2*) (Mus musculus, UniProt Q9ERK7+Q9R0W9).
In data set [9] the target is α6* nAChRs (αCtxMII-sensitive) in α4KO mice (Mus musculus, UniProt Q9ERK7+Q9R0W9).
The test system of data set [10] is α6α4β2β3 nAChRs. To be noted: cited from earlier work.
Data set [11] has as its target D2/D3 dopamine receptors. As to the kind of experiment: Saturation binding of [3H]-raclopride to membranes. Also noted: species or system mouse. To be noted: membranes from C57Bl/6 mice (data not shown).

Sequence of α6* nAChRs (αCtxMII-sensitive, α6β2*) (Q9R0W9 31-494): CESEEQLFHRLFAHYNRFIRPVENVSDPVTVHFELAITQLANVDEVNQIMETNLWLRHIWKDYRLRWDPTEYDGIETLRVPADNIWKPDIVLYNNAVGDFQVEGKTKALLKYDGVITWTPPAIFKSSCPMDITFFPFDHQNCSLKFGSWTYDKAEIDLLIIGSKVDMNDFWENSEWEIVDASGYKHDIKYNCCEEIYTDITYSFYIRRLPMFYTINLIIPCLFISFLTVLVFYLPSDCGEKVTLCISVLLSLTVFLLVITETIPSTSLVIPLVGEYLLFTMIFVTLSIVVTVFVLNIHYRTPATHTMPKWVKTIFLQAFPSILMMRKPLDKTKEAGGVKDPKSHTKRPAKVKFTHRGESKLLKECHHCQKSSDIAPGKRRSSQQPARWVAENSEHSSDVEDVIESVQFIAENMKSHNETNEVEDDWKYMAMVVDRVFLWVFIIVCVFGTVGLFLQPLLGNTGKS
Sequence of α6* nAChRs (αCtxMII-sensitive, α6β2*) (Q9ERK7 26-501): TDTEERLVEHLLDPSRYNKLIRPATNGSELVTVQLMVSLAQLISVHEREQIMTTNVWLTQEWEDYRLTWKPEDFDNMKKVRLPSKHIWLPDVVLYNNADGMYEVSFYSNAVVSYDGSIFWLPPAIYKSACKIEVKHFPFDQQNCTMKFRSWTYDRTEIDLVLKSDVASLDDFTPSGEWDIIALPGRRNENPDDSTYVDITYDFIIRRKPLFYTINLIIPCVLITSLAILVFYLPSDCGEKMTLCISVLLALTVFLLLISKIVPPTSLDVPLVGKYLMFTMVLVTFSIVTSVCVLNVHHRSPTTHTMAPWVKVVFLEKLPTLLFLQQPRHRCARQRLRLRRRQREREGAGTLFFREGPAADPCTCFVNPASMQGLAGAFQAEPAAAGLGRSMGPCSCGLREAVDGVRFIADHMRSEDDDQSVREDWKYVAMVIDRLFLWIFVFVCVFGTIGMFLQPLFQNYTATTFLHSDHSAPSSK
Sequence of α6* nAChRs (αCtxMII-sensitive, α6β2*) (O70174 31-629, further chain): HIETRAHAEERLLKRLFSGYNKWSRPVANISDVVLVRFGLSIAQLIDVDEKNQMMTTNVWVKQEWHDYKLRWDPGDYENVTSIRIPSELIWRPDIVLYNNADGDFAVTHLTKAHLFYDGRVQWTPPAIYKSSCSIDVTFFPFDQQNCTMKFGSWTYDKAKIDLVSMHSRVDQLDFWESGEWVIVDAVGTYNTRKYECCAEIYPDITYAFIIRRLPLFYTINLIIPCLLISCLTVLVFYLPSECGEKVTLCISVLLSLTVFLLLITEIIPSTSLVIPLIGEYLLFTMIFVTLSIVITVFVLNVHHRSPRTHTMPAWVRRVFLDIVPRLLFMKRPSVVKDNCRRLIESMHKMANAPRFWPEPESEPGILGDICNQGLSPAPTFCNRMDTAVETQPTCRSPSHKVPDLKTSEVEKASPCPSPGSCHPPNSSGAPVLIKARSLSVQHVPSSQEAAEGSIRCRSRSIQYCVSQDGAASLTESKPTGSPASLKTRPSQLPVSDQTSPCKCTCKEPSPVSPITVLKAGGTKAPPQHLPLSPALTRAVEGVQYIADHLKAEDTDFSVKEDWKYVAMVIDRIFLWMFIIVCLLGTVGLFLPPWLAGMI
Sequence of α6* nAChRs (αCtxMII-sensitive, α6β2*) (Q8BMN3 31-464, further chain): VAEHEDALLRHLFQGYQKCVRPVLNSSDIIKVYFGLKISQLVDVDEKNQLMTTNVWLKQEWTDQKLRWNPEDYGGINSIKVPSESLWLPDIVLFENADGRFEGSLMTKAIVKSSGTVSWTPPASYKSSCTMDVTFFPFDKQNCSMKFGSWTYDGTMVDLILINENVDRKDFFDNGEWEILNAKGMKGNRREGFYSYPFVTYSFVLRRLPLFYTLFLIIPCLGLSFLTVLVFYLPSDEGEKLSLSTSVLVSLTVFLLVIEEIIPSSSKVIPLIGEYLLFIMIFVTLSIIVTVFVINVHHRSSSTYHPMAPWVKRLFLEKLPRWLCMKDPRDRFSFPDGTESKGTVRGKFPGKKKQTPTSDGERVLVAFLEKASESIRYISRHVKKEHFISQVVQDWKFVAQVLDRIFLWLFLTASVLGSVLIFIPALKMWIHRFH
Sequence of (non-α6) α4β2* nAChRs (O70174 31-629): as the sequence (O70174 31-629, further chain) above
Sequence of (non-α6) α4β2* nAChRs (Q9ERK7 26-501): as the sequence (Q9ERK7 26-501) above
Sequence of (non-α6) α4β2* nAChRs in α6^L9′S mice (O70174 31-629): as the sequence (O70174 31-629, further chain) above
Sequence of (non-α6) α4β2* nAChRs in α6^L9′S mice (Q9ERK7 26-501): as the sequence (Q9ERK7 26-501) above
Sequence of α6* nAChRs (αCtxMII-sensitive) in α4KO mice (Q9ERK7 26-501): as above
Sequence of α6* nAChRs (αCtxMII-sensitive) in α4KO mice (Q8BMN3 31-464, further chain): as the sequence (Q8BMN3 31-464, further chain) above
Sequence of α6* nAChRs (αCtxMII-sensitive) in α4KO mice (Q9R0W9 31-494): as the sequence (Q9R0W9 31-494) above
Sequence of α6* nAChRs (αCtxMII-sensitive) in α4KO/α6^L9′S mice (Q9ERK7 26-501, stated change not applied): as the sequence (Q9ERK7 26-501) above
Sequence of α6* nAChRs (αCtxMII-sensitive) in α4KO/α6^L9′S mice (Q8BMN3 31-464, further chain): as the sequence (Q8BMN3 31-464, further chain) above
Sequence of α6* nAChRs (αCtxMII-sensitive) in α4KO/α6^L9′S mice (Q9R0W9 31-494 L280S): as the sequence (Q9R0W9 31-494) above, with L250S counted along it

As for `NC1=N[C@H](O)[C@H]2[C@H]3O[C@]4(O)O[C@@H]([C@@H](O)[C@@]2(N1)[C@@H]4O)[C@]3(O)CO` [tetrodotoxin], the “effect on evoked DA release responses” value in [1] was “blocked”.
Turning to `CN1CCc2cc(Cl)c(O)cc2[C@@H](c2ccccc2)C1` [[^3H]-SCH23390], the Kd (in general, the constant that tells how readily two partners part at equilibrium) in data set [2] was approximately 0.1 nM.
Take `CN1CCC[C@H]1c1cccnc1` [nicotine, (-)-nicotine tartrate]: the Rmax in data set [3] was 15.8 ± 0.5 units and 14.5 ± 0.5 units; in [4] it was 7.8 ± 0.2 units and 7.4 ± 0.4 units; in data set [6] it was 5.24 ± 0.24 units and 4.16 ± 0.06 units; in [8], 4.6 ± 0.3 units and 3.2 ± 0.3 units; in data set [9], 3.83 ± 0.13 units and 3.63 ± 0.15 units. The “concentration in brain CSF” value in [5] is 100 to 500 nM. In addition, in data set [7], the “potency and efficacy for locomotor activation” value is on record as “consistently reduced”. The peak locomotor response in [7] (ip, 0.2 mg/kg) is 93 ± 14 ambulations/min and 53 ± 4 ambulations/min. In addition, the EC50 (usually the concentration giving half of the maximal effect) in data set [10] is 230 nM.
For `CCN1CCC[C@H]1CNC(=O)c1c(O)c(Cl)cc(Cl)c1OC` [[^3H]-raclopride], the Kd in [11] is approximately 2 nM.
